Patent US4985416A, “Platinum complexes of azodiazonium dyes as anti-tumor agents” (priority 1989, dated 1991)
Read-outs that look alike come from different tables or passages of the source.

What was measured:
EMT6 cells = test: Entry of platinum into EMT6 cells; assay type: cell-based; conditions: in words
carcinoma cells = conditions: in words; Bernal et al.; cited from earlier work
FSaII fibrosarcoma cells [1] = assay type: in vivo, mice; conditions: 300 mg/kg i.p.
Procedure: Fifteen minutes later radiation was delivered locally to the tumor bearing limb as a single dose of 10, 20, or 30 gray as indicated in the table. No anesthetic was used. The growth of each tumor was measured thrice weekly until it reached a volume of 500 mm^3. […] The delay is reported in terms of the mean number of additional days beyond the control required for the tumors in each group to reach the specified volume.

FSaII fibrosarcoma cells [2] = test: Enhancement of killing effect of heat treatment (hyperthermia) in vivo: growth delay; design: species or system mice
Procedure: FSaII fibrosarcoma cells (2×10^6 FSaII cells) were implanted in the legs of mice: the drug was administered i.p. when the tumor had grown to approximately 50 mm^3 in volume, using 0.9% phosphate buffered saline as carrier, as described above in the doses shown in Table 3 below. Fifteen minutes later radiation was delivered locally to the tumor bearing limb as a single dose of 10, 20, or 30 gray as indicated in the table. No anesthetic was used. The growth of each tumor was measured thrice weekly until it reached a volume of 500 mm^3. Each treatment group had 7 animals and the procedure was repeated 3 times. Tumor volume was calculated as a hemiellipsoid, and in the untreated control animals, tumors reached the specified volume in 14.0 days. The delay is reported in terms of the mean number of additional days beyond the control required for the tumors in each group to reach the specified volume. The results were as follows:
The complex was also found to be effective in enhancing the killing effect of heat treatment (hyperthermia) in vivo. The procedure described in the preceding paragraph was carried out except that there was substituted for the single radiation dose a heat treatment by immersion of the tumor-bearing limb in a water bath at 44° C. for 30 minutes to raise the tumor temperature to 43° C. The means number of days delay (n=14) was as follows: […]

Lewis Lung carcinoma = test: Anti-metastatic activity: lung metastases from Lewis Lung carcinoma; assay type: in vivo, mice; conditions: day 7, lungs day 20, control 14
Procedure: (§1) Anti-tumor activity of the complex prepared as described above was determined in vivo in mice by comparative tests against Fast Black dye alone and against Cis-diamminedichloroplatinum (CDDP) using the following procedure Two different solid tumor cell lines were employed, Lewis Lung and FSaII, 2×10^6 tumor cells being implanted i.m. into the legs of male C57BL/6J and C3H/He mice 8 to 10 weeks of age, respectively. The drugs were administered i.p. on day 7 after tumor implantation (when tumors were about 100 mm^3 in volume), in solution (0.5%) in 0.9% phosphate-buffered saline as carrier. Tumor growth delay is reported in Table I below as the difference in number of days for the treated tumors to reach 500 mm^3 in volume and the number of days required for untreated control tumors to reach the same volume (n=14 in each group). Tumor volume was calculated as a hemiellipsoid. In the control animals, tumors reached the specified volume in 12-14 days.
Anti-metastatic activity was determined by implanting Lewis Lung carcinoma cells in the legs of mice as described above, administering drugs in the doses indicated in Table II below, i.p. on day 7 after implantation and removing the lungs on day 20 followed by counting metastases. Control mice received no drug (n=14 in each group).

Lewis Lung = test: Tumor growth delay in vivo, Lewis Lung solid tumor; design: species or system mice (C57BL/6J); conditions: day 7, to reach 500 mm^3
Procedure: as §1

FSaII = test: Tumor growth delay in vivo, FSaII solid tumor; design: species or system mice (C3H/He); conditions: day 7, to reach 500 mm^3
Procedure: as §1

SMILES: [Cl][Pt-2]([Cl])([Cl])[Cl].[K+].[K+] [potassium tetracloroplatinate, potassium tetrachloroplatinate]
- entry of platinum into the cells (EMT6 cells): only very poor entry of platinum into the cells

SMILES: COC(=O)c1ccccc1-c1c2ccc(=N)cc-2oc2cc(N)ccc12 [Rhodamine 123]
- selective toxicity toward carcinoma cells (carcinoma cells): selectively toxic toward carcinoma cells

SMILES: COc1cc([N+]#N)c(OC)cc1N=Nc1ccc([N+](=O)[O-])cc1 [Fast Black]
- Mean No. Days Delay (FSaII fibrosarcoma cells [1]; 0 Gray): 3.0 days
- Mean No. Days Delay (FSaII fibrosarcoma cells [1]; 10 Gray 15 min later, radiation alone 1.8): 7.0 days
- Mean No. Days Delay (FSaII fibrosarcoma cells [1]; 20 Gray 15 min later, radiation alone 6.3): 12.6 days
- Mean No. Days Delay (FSaII fibrosarcoma cells [1]; 30 Gray 15 min later, radiation alone 8.8): 16.2 days
- Mean No. Days Delay (FSaII fibrosarcoma cells [2]; 300 mg/kg, heat 30 min at 43° C., heat alone 1.4): 4.4 days
- Mean No. Days Delay (FSaII fibrosarcoma cells [2]; 300 mg/kg, no heat): 2.7 days
- Mean No. of Metastases per Animal (Lewis Lung carcinoma; 50 mg/kg i.p.): 13.3 Metastases per Animal
- Mean No. of Metastases per Animal (Lewis Lung carcinoma; 100 mg/kg i.p.): 12.3 Metastases per Animal
- Mean No. of Metastases per Animal (Lewis Lung carcinoma; 250 mg/kg i.p.): 11.0 Metastases per Animal
- Mean No. Days Delay (Lewis Lung) (Lewis Lung; 250 mg/kg i.p.): 2.0 days
- Mean No. Days Delay (FSaII) (FSaII; 250 mg/kg i.p.): 2.7 days

SMILES: N.N.[Cl][Pt][Cl] [CDDP, Cis-diamminedichloroplatinum (II)]
- Mean No. Days Delay (FSaII fibrosarcoma cells [2]; 5 mg/kg, heat 30 min at 43° C., heat alone 1.4): 5.9 days
- Mean No. Days Delay (FSaII fibrosarcoma cells [2]; 5 mg/kg, no heat): 4.4 days
- Mean No. of Metastases per Animal (Lewis Lung carcinoma; 10 mg/kg i.p.): 10.7 Metastases per Animal
- Mean No. Days Delay (Lewis Lung) (Lewis Lung; 5 mg/kg i.p.): < 1 days
- Mean No. Days Delay (Lewis Lung) (Lewis Lung; 10 mg/kg i.p.): < 1 days
- Mean No. Days Delay (FSaII) (FSaII; 5 mg/kg i.p.): 4.4 days
- Mean No. Days Delay (FSaII) (FSaII; 10 mg/kg i.p.): 8.0 days
